Reference: patent US20240041042A1, “1-(PYRIDYL)-5-AZINYLPYRAZOLE DERIVATIVES, AND THEIR USE FOR CONTROL OF UNDESIRED PLANT GROWTH” (Bayer Aktiengesellschaft, priority 2020, published 2024)
Where two headings read alike, the source gives them in different places.

What was measured:
Assay type in all cases: in vivo
[1] = tested on: Viola tricolor (VIOTR); test: Post-emergence herbicidal action against VIOTR
Summary of the method: (§1)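 Rates were 320 g/ha or below, applied as aqueous WP/EC spray with 0.5% additive (600 l/ha) onto one-leaf-stage plants. About 3 weeks later in the greenhouse, damage was scored visually against untreated plants on a 0–100% scale, where 100% means plants died.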

[2] = tested on: Echinochloa crus-galli (ECHCG); test: Post-emergence herbicidal action against ECHCG
Summary of the method: as §1

[3] = tested on: Oryza sativa (ORYSA); settings: crop plant compatibility
Summary of the method: (§2)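 Test crops were treated 2 to 3 weeks after sowing, once they reached one leaf, by spraying compound in water with 0.5% additive at 600 l/ha. Visual scoring compared them with untreated controls roughly 3 weeks on, and appendices a, b and c denote different doses.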

[4] = tested on: Zea mays (ZEAMX); settings: for Post-emergence action against ZEAMX in % (crop plant compatibility): 20 g/ha, effect in comparison to untreated controls; for Post-emergence action against ZEAMX in %: crop plant compatibility, effect vs untreated controls
Summary of the method: as §2

[5] = tested on: Digitaria sanguinalis (DIGSA); test: Post-emergence herbicidal action against DIGSA; settings: visual rating about 3 weeks after treatment
Description: Seeds of monocotyledonous and dicotyledonous weeds and crop plants are placed in sandy loam in plastic or organic planting pots, covered with soil and cultivated in a greenhouse under controlled growth conditions. 2 to 3 weeks after sowing, the test plants are treated at the one-leaf stage. The compounds of the invention, formulated in the form of wettable powders (WP) or as emulsion concentrates (EC), are then sprayed onto the green parts of the plants as aqueous suspension or emulsion with addition of 0.5% additive at a water application rate of 600 l/ha (converted). After the test plants have been kept in the greenhouse under optimum growth conditions for about 3 weeks, the activity of the preparations is rated visually in comparison to untreated controls. For example, 100% activity=the plants have died, 0% activity=like control plants.
Tables B1 to B13 below show the effects of selected compounds of the general formula (I) according to Table 1 on various harmful plants and at an application rate corresponding to 320 g/ha or lower, which were obtained by the experimental procedure mentioned above. The appendices “a”, “b” and “c” give differentiation by dosage used with otherwise the same harmful plants tested.

[6] = tested on: Setaria viridis (SETVI); test: Post-emergence herbicidal action against SETVI
Summary of the method: as §1

[7] = tested on: Alopecurus myosuroides (ALOMY); test: Post-emergence herbicidal action against ALOMY; settings: 320 g/ha, visual rating about 3 weeks after treatment vs untreated controls (100% = plants have died, 0% = like control plants)
Summary of the method: as §1

[8] = tested on: Pharbitis purpurea (PHBPU); test: Post-emergence herbicidal action against PHBPU
Summary of the method: as §1

[9] = tested on: Polygonum convolvulus (POLCO); test: Post-emergence herbicidal action against POLCO
Summary of the method: as §1

[10] = tested on: Lolium rigidum (LOLRI); test: Post-emergence herbicidal action against LOLRI
Summary of the method: as §1

[11] = tested on: Verconica persica (VERPE); test: Post-emergence herbicidal action against VERPE
Summary of the method: as §1

[12] = tested on: Abutilon theophrasti (ABUTH); test: Post-emergence herbicidal action against ABUTH; settings: 320 g/ha, visual rating about 3 weeks after treatment vs untreated controls (100% = plants have died, 0% = like control plants)
Summary of the method: as §1

[13] = tested on: Avena fatua (AVEFA); test: Post-emergence herbicidal action against AVEFA; settings: visual rating about 3 weeks after treatment
Summary of the method: as §1

[14] = 20 g/ha, effect vs untreated controls
[15] = 80 g/ha, effect in comparison to untreated controls

Compound	Post-emergence action against VIOTR in % ([1]; 320 g/ha) [%]	Post-emergence action against ECHCG in % ([2]; dosage 320 g/ha) [%]	Post-emergence action against ORYSA in % [3, 14] [%]	Post-emergence action against ORYSA in % [3, 15] [%]	Post-emergence action against ZEAMX in % (crop plant compatibility) [4] [%]	Post-emergence action against ZEAMX in % ([4]; 80 g/ha) [%]	Post-emergence action against DIGSA in % ([5]; 80 g/ha) [%]	Post-emergence action against DIGSA in % ([5]; 320 g/ha) [%]	Post-emergence action against SETVI in % ([6]; dosage 80 g/ha) [%]	Post-emergence action against SETVI in % ([6]; dosage 320 g/ha) [%]	Post-emergence action against ALOMY in % [7] [%]	Post-emergence action against PHBPU in % ([8]; dosage 320 g/ha) [%]	Post-emergence action against POLCO in % ([9]; dosage 320 g/ha) [%]	Post-emergence action against LOLRI in % ([10]; dosage 320 g/ha) [%]	Post-emergence action against VERPE in % ([11]; 320 g/ha, VERPE) [%]	Post-emergence action against VERPE in % ([11]; dosage 80 g/ha) [%]	Post-emergence action against AVEFA in % ([13]; 320 g/ha) [%]	other results
COC(=O)CCOC(=O)[C@@H](C)Oc1nn(-c2ccccn2)c(-c2ccc(F)nc2)c1Br [Example I-290]	80	90	0	10	0	10	90	90	90	90	90	90	80	80	80	80		Post-emergence action against ECHCG in % ([2]; dosage 80 g/ha): 80%
CCOC(=O)[C@@H](C)Oc1nn(-c2ncccc2F)c(-c2ccnc(F)c2)c1Br [Example I-133]	90	90	0	10	0	0		80		80	90	80	80	90	80	80	80	Post-emergence action against ABUTH in % [12]: 80%; Post-emergence action against VIOTR in % ([1]; 80 g/ha): 80%; Post-emergence action against ZEAMX in % ([4]; 320 g/ha): 20%; Post-emergence action against POLCO in % ([9]; dosage 80 g/ha): 80%
COC(=O)C(C)OC(=O)C(C)Oc1nn(-c2ccccn2)c(-c2ccc(F)nc2)c1Br (stereo not drawn) [Example I-288]	80	80	0	10			80	90	90	90	90	90	80	80	80	80	90	Post-emergence action against AVEFA in % ([13]; 80 g/ha): 80%; Post-emergence action against PHBPU in % ([8]; dosage 80 g/ha): 80%; Post-emergence action against LOLRI in % ([10]; dosage 80 g/ha): 80%
